{"source": "ChEMBL document CHEMBL3399954", "about": "“Design and synthesis of new tricyclic indoles as potent modulators of the S1P1 receptor” (Bioorg Med Chem Lett, 2015)", "key": {"[1]": {"assay": "Half life in human liver microsomes", "type": "ADME"}, "[2]": {"assay": "AUClast in Sprague-Dawley rat at 1 mg/kg, iv and 1 mg/kg, po", "type": "ADME, organism-based", "details": "plasma"}, "[3]": {"assay": "Volume of distribution at steady state in Sprague-Dawley rat at 1 mg/kg, iv and 1 mg/kg, po", "type": "ADME, organism-based", "details": "in vivo, read-out: Vdss"}, "[4]": {"assay": "Half life in rat liver microsomes", "type": "ADME"}, "[5]": {"assay": "Half life in Sprague-Dawley rat at 1 mg/kg, iv", "type": "ADME, organism-based", "set-up": "dose 1 mg/kg, route intravenous", "details": "in vivo"}, "[6]": {"assay": "Clearance in Sprague-Dawley rat at 1 mg/kg, iv and 1 mg/kg, po", "type": "ADME, organism-based", "details": "in vivo"}, "[7]": {"assay": "Oral bioavailability in Sprague-Dawley rat at 1 mg/kg", "type": "ADME, organism-based", "details": "in vivo"}, "[8]": {"assay": "Half life in mouse liver microsomes", "type": "ADME"}}, "data": [{"smiles": "O=C(O)CC1NCCc2c1[nH]c1ccc(OCc3ccc(C4CCCC4)c(C(F)(F)F)c3)cc21", "note": "(single isomer, unassigned)", "values": [{"measurement": "half-life", "setting": "[1]", "value": "> 1", "unit": "h"}, {"measurement": "AUC(0-t)", "setting": "[2]", "value": 1320, "unit": "ng·h/mL"}, {"measurement": "Vd", "setting": "[3]", "value": 6.71, "unit": "L/kg"}, {"measurement": "half-life", "setting": "[4]", "value": "> 1", "unit": "h"}, {"measurement": "half-life", "setting": "[5]", "value": 9.49, "unit": "h"}, {"measurement": "clearance", "setting": "[6]", "value": 10.7, "unit": "mL/min/kg"}, {"measurement": "bioavailability", "setting": "[7]", "value": "< 2", "unit": "%"}, {"measurement": "half-life", "setting": "[8]", "value": "> 1", "unit": "h"}]}]}
